Entries after “also recorded” stand apart in the source; their conditions may differ.
Legend:
SRS-A = test: Test Procedure 2: inhibition of SRS-A-induced bronchoconstriction in anesthetized guinea pigs (Konzett-Rossler); type: in vivo, guinea pig; conditions: for % Inhibition (duration of anti-SRS-A effect) / Ratio of Peak Response to SRS-A in Paired Med./Co. Guinea Pigs ± S.E.: 10 mg/kg p.o.
Source text: SRS-A was harvested as described in Test Procedure 1 described hereinabove. A slightly modified Konzett-Rossler preparation [Arch. […] Guinea pigs weighing 350 to 450 g were anesthetized ip with 1.5 g/kg urethane. The jugular vein and trachea were cannulated and the guinea pigs were artificially respired at a rate of 40 strokes/minute. […] A side arm of the inflationary air cannula was connected to a pressure transducer and resistance to pulmonary inflation continuously recorded. […] Studies with SRS-A commenced after each guinea pig had attained maximum bronchoconstrictor response to histamine. […] The effects of the test compounds were studied by measuring SRS-A-induced bronchoconstriction side-by-side in two guinea pigs, one medicated and one control. Subsequent medicated/control pairs were alternated on two respiratory pumps. In this manner, the gradual decomposition of SRS-A and differences between the two pump/recorder systems, if any, were controlled. The dose (volume) of each sample of SRS-A was adjusted in each pair to keep the peaks of increases in bronchial resistance in control guinea pigs within 13 to 40 mmHg. Bronchoconstriction following injection of SRS-A was measured two ways; as the peak increase in resistance to inflation and, in view of the occasional irregular bronchoconstriction response curves following injection of SRS-A, as the sum of increases in bronchoconstriction over 10 minutes (pressure/time units). Pressure/time units were calculated by measuring the area under the curve of inflationary resistance where ordinates were set at 10 mm of pen excursion/10 mm pressure Hg and the abscissas were set at 15 mm of paper travel/minute. […] SRS-A-induced bronchoconstriction (increase in resistance) was calculated as the area under the curve and over the normal base line of resistance to inflation. […] The effects of the test compounds upon SRS-A-induced bronchoconstriction were expressed as ratios of the peaks and as ratios of the pressure/time units between the paired medicated and control guinea pigs. The consistency of paired responses to SRS-A in nonmedicated guinea pigs was determined in the same manner, by alternating the ratios of the results of guinea pigs on pumps one and two. […] SRS-A was injected 5 minutes after these latter injections. Compound b was prepared as a solution in 2% N-methylglucamine and used within 3 hours. […] Control guinea pigs received injections of the respective solvent vehicles. In order to compare the activities of compound b following iv and po routes of administration, compound b was also administered orally. […] Control guinea pigs received 2% N-methylglucamine. Fifteen minutes later, the guinea pigs were anesthetized, cannulated, and prepared for injections of SRS-A as described. The procedure was timed so that SRS-A was injected 1 hour after the oral administration of compound b. In a separate experiment, using the same methodology, the duration anti-SRS-A activity of compound b was determined after oral administration. Compound b was finely ground in a tissue homogenizer and prepared as a suspension in 0.5% gum tragacanth. A dose of 10 mg/kg was administered and anti-SRS-A effect studied at 1, 4 and 7 hr postmedication. The ratios of peak increases in intratracheal pressure between paired medicated and control guinea pigs was used to calculate percent inhibition.

serotonin = test: Test Procedure 6: serotonin-induced bronchoconstriction in anesthetized guinea pigs; type: in vivo, guinea pig
Protocol: Guinea pigs, weighing 275-340 g, were anesthetized and prepared for measurements of resistance to pulmonary inflation using a slightly modified Konzett-Rossler method (see Test Procedure 2). All guinea pigs received 0.1 mg/kg of propranolol iv and 5 minutes later, 50 mcg/kg of serotonin (creatinine complex) iv. Compound b or cyproheptadine were administered iv just before the injection of propranolol at 50 or 5 mg/kg, respectively. Compound b was prepared as a 5% solution in 5% N-methylglucamine and cyproheptadine as a 0.25% aqueous solution.

[1] = suspension, 1 hr before test, P 0.01
[2] = suspension, 4 hr before test, P 0.01
[3] = p.o. 3.3 mg/kg, solution, 1 hour
[4] = p.o. 10 mg/kg, solution, 1 hour

SMILES: COc1ccc2c(c1)c1c(n2C(=O)c2ccccc2)CCC(C(=O)O)C1 (stereo not shown) [Compound b, 9-benzoyl-6-methoxy-1,2,3,4-tetrahydrocarbazole-3-carboxylic acid]
- % Inhibition (duration of anti-SRS-A effect) (SRS-A; [1]): 81%
- Ratio of Peak Response to SRS-A in Paired Med./Co. Guinea Pigs ± S.E. (SRS-A; [1]): 0.19 ± 0.05
- % Inhibition (duration of anti-SRS-A effect) (SRS-A; [2]): 68%
- Ratio of Peak Response to SRS-A in Paired Med./Co. Guinea Pigs ± S.E. (SRS-A; [2]): 0.32 ± 0.08
- % Inhibition (duration of anti-SRS-A effect) (SRS-A; suspension, 7 hr before test): 0%
- Ratio of Peak Response to SRS-A in Paired Med./Co. Guinea Pigs ± S.E. (SRS-A; suspension, 7 hr before test): 1.00 ± 0.15
- minimal effective dose (SRS-A; Cavia porcellus, intravenous, read-out: minimal active dose): 1 mg/kg
- effect against SRS-A-induced bronchoconstriction (activity profile) (SRS-A; guinea pigs): effectiveness
- % Inhibition (sum of increase in resistance over 10 min) (SRS-A; i.v. 0.3 mg/kg): 0%
- Sum of Increase in Resist. to Infl. over 10 min, Avg Ratio Med/Co. Pairs ± S.E. (SRS-A; i.v. 0.3 mg/kg): 1.18 ± .33
- % Inhibition (peak increase in resistance) (SRS-A; i.v. 0.33 mg/kg): 0%
- Peak Increase in Resistance to Inflation, Avg Ratio of Med/Co. Pairs ± S.E. (SRS-A; i.v. 0.33 mg/kg): 1.10 ± .19
- % Inhibition (peak increase in resistance) (SRS-A; i.v. 1.0 mg/kg): 54%
- % Inhibition (sum of increase in resistance over 10 min) (SRS-A; i.v. 1.0 mg/kg): 45%
- Peak Increase in Resistance to Inflation, Avg Ratio of Med/Co. Pairs ± S.E. (SRS-A; i.v. 1.0 mg/kg): 0.44 ± .07
- Sum of Increase in Resist. to Infl. over 10 min, Avg Ratio Med/Co. Pairs ± S.E. (SRS-A; i.v. 1.0 mg/kg): 0.55 ± .09
- % Inhibition (peak increase in resistance) (SRS-A; i.v. 3.3 mg/kg): 89%
- % Inhibition (sum of increase in resistance over 10 min) (SRS-A; i.v. 3.3 mg/kg): 83%
- Peak Increase in Resistance to Inflation, Avg Ratio of Med/Co. Pairs ± S.E. (SRS-A; i.v. 3.3 mg/kg): 0.11 ± .04
- Sum of Increase in Resist. to Infl. over 10 min, Avg Ratio Med/Co. Pairs ± S.E. (SRS-A; i.v. 3.3 mg/kg): 0.17 ± .05
- % Inhibition (peak increase in resistance) (SRS-A; i.v. 10 mg/kg): 95%
- % Inhibition (sum of increase in resistance over 10 min) (SRS-A; i.v. 10 mg/kg): 86%
- Peak Increase in Resistance to Inflation, Avg Ratio of Med/Co. Pairs ± S.E. (SRS-A; i.v. 10 mg/kg): 0.05 ± .03
- Sum of Increase in Resist. to Infl. over 10 min, Avg Ratio Med/Co. Pairs ± S.E. (SRS-A; i.v. 10 mg/kg): 0.14 ± .04
- inhibition of SRS-A-induced increases in resistance to inflation (SRS-A; intravenous): inhibited SRS-A-induced increases in resistance to inflation in a dose-related manner
- potency relative to phenylbutazone, times more potent (95% confidence limits) (SRS-A; intravenous, calculated by peaks of increases in resistance): 3.8 (95% confidence limits of 1.8 to 7.8) times
- absorption from the GI tract (SRS-A; oral solution in 2% N-methylglucamine, suggested by activity ratio): readily absorbed from the GI tract
- inhibition of SRS-A-induced bronchoconstriction (SRS-A; oral solutions): dose-related inhibition
- % Inhibition (peak increase in resistance) (SRS-A; [3]): 36%
- % Inhibition (sum of increase in resistance over 10 min) (SRS-A; [3]): 47%
- Peak Increase in Resistance to Inflation, Avg Ratio of Med/Co. Pairs ± S.E. (SRS-A; [3]): 0.64 ± .13
- Sum of Increase in Resist. to Infl. over 10 min, Avg Ratio Med/Co. Pairs ± S.E. (SRS-A; [3]): 0.53 ± .13
- % Inhibition (peak increase in resistance) (SRS-A; [4]): 87%
- % Inhibition (sum of increase in resistance over 10 min) (SRS-A; [4]): 92%
- Sum of Increase in Resist. to Infl. over 10 min, Avg Ratio Med/Co. Pairs ± S.E. (SRS-A; [4]): 0.08 ± .03
- duration of inhibition of SRS-A-induced bronchoconstriction (SRS-A; single oral dose 10 mg/kg, suspension): 4 h
- iv/po activity ratio (po AED50/iv AED50) (SRS-A; solution in 2% N-methylglucamine): 2.6
- effect against serotonin-induced bronchoconstriction (serotonin; guinea pigs): no inhibitory effect; also recorded: ineffectiveness
- Increase in Resistance (mm Hg) (serotonin; iv 50 mg/kg, P insign.): 45 ± 8 mm Hg
- Inhibition % (serotonin; iv 50 mg/kg, P insign.): 4%
